Reference: US20140295012A1, “LATENT HUMAN IMMUNODEFICIENCY VIRUS REACTIVATION” (priority 2011, published 2014)
Values joined by “and” are separate entries in the source; they are usually repeats but may differ in a detail not shown here. Equal entries are not always repeated. *1 amine or outer side, *2 acyl side, *3 side chain or, on linkers, in order; H or OH if unused. Where a SMILES comes first, the peptide text is derived from it. Bridges are numbered along the chain shown (N, C = ends). Roman numbers before positions name the chains, in order. [ ]: non-standard residue; d: D form. Actinocin(9to1) = Cc1c2oc3c(C)ccc(C(=O)[*:1])c3nc-2c(C(=O)[*:2])c(N)c1=O; NMeV = CN[C@H](C(=O)O)C(C)C; Sar = CNCC(=O)O

B1: HRF: flagellin polypeptide from Massilia timonae (SEQ ID NO:10), used as bacterial culture supernatant (protein)
chain: MASVINTNVPSLNSQRNLSTSQAQLNTSIQRLSSGMRINSAKDDAAGLAISDRMNSQIKGMTQATRNANDGVSMAQTAEGALSSSGDILQRIRELAVQSSNSSNSASDRKALQTEVTQLSSELNRIANTTEFNGQKLMDGTLGTANFQVGANAGQLISMTGANFNTSVYGNNQIAGDAAKAAATTSAAATGAFTISGYLGTSAAINTTDADTAKTIAASINNVTGDTGVTATARTDSFLKSAGGAHTMSLASDNSGTGEAVDISFTVGDGGDTADDYAAAISAFNAQTAKTGVTAEYDAVEKGLKLTNSAGENISLTNKAGSADIDMDTYAADGALMASALTLEAGDVGVANGRVTMDSEKSFSVAEGTDTGFELADSSALKSVAKIDISDFEGAQEAIKVADAALSAVNSQRAEYGALQSRFESAISNLSSSTENLSASRSRIVDTDFAAETAKMTRGQILQQAGTSMLAQANSLPNGVLSLLRG

What was measured:
Format in all cases: cell-based
[1] = test system: latently HIV-1 infected CA5 T cells
Method: Infection levels in the cell cultures were monitored by flow cytometric analysis of EGFP expression. Flow cytometric analysis was performed on a GUAVA EasyCyte (Millipore; Billerica, Mass.), or a LSRII (Becton & Dickinson; Franklin Lakes, N.J.).
Bacterial growth. Bacteria from various sources were isolated on TSA II agar plates containing 5% sheep blood. Bacterial isolates were then grown in RPMI 1640 medium supplemented with 10% FBS. After two days of incubation at 37° C. bacteria were pelleted and resuspended in RPMI medium to an optical density (OD600) of 8, aliquoted and frozen at −80° C. Unless otherwise indicated, Massilia timonae was grown in RPMI 1640 medium supplemented with 10% FBS. Typically, medium was inoculated with Massilia timonae from frozen stocks to an OD600 of 0.01. After 48 hours at 37° C., the culture was centrifuged at 3200 g to separate bacteria from the culture medium. Bacteria were resuspended in fresh medium to an OD600 of 8 and frozen to be used as references and stock cultures. The supernatant was then centrifuged at 10,000 g for 20 minutes and sterilized by passage through a 0.2 μm PVDF filter with low protein binding ability. HRF activity was determined by its ability to reactivate latent HIV-1 infection in CA5 cells. Only supernatants of which 6 μl reactivated infection in at least 60% of CA5 cells were used to study HRF properties.
Flow cytometry. Infection levels in the cell cultures were monitored by flow cytometric (FCM) analysis of GFP expression. FCM analysis was performed on a GUAVA EasyCyte (GUAVA Technologies, Inc.; Millipore; Billerica, Mass.) and a BD FACSCalibur or a LSRII (Becton & Dickinson; Franklin Lakes, N.J.). Cell sorting experiments were performed using a FACSAria™ Flow Cytometer (Becton&Dickinson). Data analysis was performed using either CellQuest (Becton&Dickinson) or GUAVA Express (GUAVA Technologies, Inc.).
To identify the optimal concentration of dactinomycin, CA5 T cells were pretreated with increasing concentrations of dactinomycin (0.0001 and 1 μg/ml), and then left untreated or stimulated with a sub-optimal concentration of HRF or TNF-α. Representative results for stimulation with HRF are depicted in FIG. 3. The chosen HRF concentration has only minimal HIV-1 reactivating effect by itself (15% reactivation over background). Twenty four hours after activator addition, levels of HIV-1 reactivation were determined as the percentage of GFP-positive cells using flow cytometric analysis, which allowed for the simultaneous determination of cell viability. […] Optimal pretreatment time was 18 hours. Maximum reactivation effects were seen 48 hours after stimulation.

[2] = test system: latently HIV-1 infected J89GFP T cells; assay: HIV-1 reactivation / priming in latently HIV-1 infected J89GFP T cells (GFP, flow cytometry, HTS)
Method: Flow cytometry. Infection levels in the cell cultures were monitored by flow cytometric (FCM) analysis of GFP expression. […] Cell sorting experiments were performed using a FACSAria™ Flow Cytometer (Becton&Dickinson). Data analysis was performed using either CellQuest (Becton&Dickinson) or GUAVA Express (GUAVA Technologies, Inc.).

[3] = test system: latently HIV-2 infected J2574 reporter T cells; assay: Priming of latent HIV-2 infection in J2574 reporter T cells infected with HIV-2 7312A
Method: J2574 reporter T cells were infected with HIV-2 7312A and a latently infected cell population was established (>90% latently infected cells). […] Reactivation levels were determined 24 hours post HRF activation by quantifying the level of GFP-positive cells using flow cytometric analysis.
J2574 reporter T cells were generated by retrovirally transducing Jurkat T cells with a HIV-1 reporter construct (p2574) in which the HIV-1 LTR controls the expression of GFP. The HIV-1 LTR and the GFP gene are separated by a 2,500 base pair (bp) spacer element. Lentiviral particles were produced by transfecting 293T cells with p2574 and supplying gag-pol-rev-tat in trans. VSV-G was used as viral envelope protein. Following lentiviral transduction of Jurkat cells, all cells that spontaneously expressed GFP were removed by cell sorting. The GFP-negative population was then activated with PMA to identify all cells that would harbor an inducible LTR-GFP-LTR integration event. Cells that turned GFP-positive following stimulation were again selected by cell sorting. GFP expression in this population ceased after a few days leaving a population of GFP-negative reporter cells. The amount of founder cells for this population is calculated to represent >50,000 individual integration events.
To determine the ability of dactinomycin to prime a latent HIV-2 infection, a latently HIV-2 infected population of GFP reporter T cells was tested. Briefly, to create the latent HIV-2 infected population, J2574 reporter cells were infected with HIV-2 7312A and a population of latently HIV-2 infected cells was generated by removing the actively infected, GFP-positive cells using a fluorescence activated cell sorter.

[4] = test system: latently HIV-1 infected CA5 T cells; remark: listed apart in the source
[5] = test system: NF-κB dependent promoters in 293T cells; assay: NF-κB dependent promoter constructs transfected into 293T cells (EGFP expression)
Method: FIGS. 6A-6C show HRF triggers suboptimal functional induction of NF-κB dependent gene expression. […] The HIV-1 reactivating kinetics were determined by stimulating CA5 T cells with optimal concentrations of HRF, phorbol 12-myristate 13-acetate (PMA) and tumor necrosis factor-α (TNF-α) and analyzing HIV-1 reactivation as a function of EGFP-expression over a period of 48 hours. Data for all agents are depicted as the percentage of EGFP-positive cells in the total cell population. […] To test the ability of HRF to mediate Tat-independent activation of the HIV-1 LTR, NOMI cells (HIV-1 reporter cell line with an integrated LTR-EGFP construct) were stimulated with increasing concentrations of PMA (0.01-10 ng/ml), TNF-α (0.003-30 μg/ml) and HRF supernatant (0.3-100 μl). The level of LTR-induction was then measured as EGFP-expression detectable after 24 hours as determined by flow cytometric analysis. Arrows indicate the concentrations at which the respective stimulus would have triggered full HIV-1 reactivation in the latently HIV-1 infected CA5 T cell line. […] 293T cells were transfected with several NF-κB dependent promoter constructs and then stimulated with either TNF-α (10 μg/ml) or HRF (25 μl). Promoter induction was measured as total EGFP expression. (NF-κB:pNF-κB-d2EGFP; LTR:HIV-1 LTR-GFP; IL-8:pIL-8 GFP; TNF:human TNF-GFP; MSCV:murine stem cell virus LTR driven GFP; no NF-κB responsive elements).
The utilized EGFP reporter virus HIV-1 NLENG1-IRES has been described elsewhere (Kutsch et al., J. Virol. 76:8776-86 (2002); Levy et al., Proc. Natl. Acad. Sci. USA 101:4204-9 (2004)). The reporter plasmid pNF-κB-d2EGFP was purchased from Clontech (Mountain View, Calif.). The LTR-GFP construct and the IL-8 reporter construct have been described earlier (Choi et al., Mol. Cell. Biol. 22:724-36 (2002)). The TNF-promoter construct was generated by cloning the human TNF-α promoter element defined by primer pair 5′-BglII; 5′-[…] […]-3′ (SEQ ID NO:2) and 3′-AgeI; 5′-[…] […]-3′ (SEQ ID NO:3) into pd2EGFP (Clontech). MSCV-GFP was generated by cloning the EGFP-gene into retroviral pMSCV-puro vector (Clontech).

NF-κB = NF-κB activity measured by GFP production in Jurkat T cells; settings: compared with Salmonella typhimurium flagellin

Molecule	priming effect on HIV-1 reactivation by sub-optimal dose of HRF ([1]; CA5 cells pretreated with increasing concentrations)	concentration of optimal priming activity ([1]; pretreatment, then sub-optimal HRF or TNF-α, both T cell lines)	priming of latent HIV-1 infection for reactivation ([2]; in combination with sub-optimal TNF-α)	HIV-1 reactivating capacity by itself ([2]; relative to latently infected control cells)	concentration range that efficiently primed latent HIV-2 infection for reactivation ([3]; 18 hours pretreatment, sub-optimal HRF)	HIV-2 reactivation levels ([3]; costimulation: dactinomycin pretreatment plus sub-optimal HRF)	priming effects with low concentrations of TNF-α or PMA as reactivating agents [4]	priming effect for reactivation by TNF-α ([4]; CA5 cells, same sense integration, 4 ng/ml, 18 hours pretreatment)	concentrations acting as inhibitor of HIV-1 expression and reactivation ([4]; observed at the onset of drug toxicities)	concentrations at which a priming effect was observed ([4]; pretreatment, then sub-optimal HRF or TNF-α)	HIV-1 reactivation over background ([1]; sub-optimal HRF concentration by itself)	GFP expression driven by NF-κB responsive promoter constructs (IL-8, TNF-α, HIV-1 LTR, three consensus NF-κB sites) [5]	GFP expression of construct under control of murine stem cell virus LTR (no NF-κB responsive element) [5]	NF-κB activity and NF-κB driven gene expression (NF-κB)	HIV-2 reactivation (cells) ([3]; sub-optimal dose of HRF by itself)	efficiency of HIV-1 reactivation ([4]; compared with Salmonella typhimurium flagellin)	potency of activating latent HIV-1 provirus ([4]; compared with TNFα or PMA)
Cc1c2oc3c(C)ccc(C(=O)N[C@@H]4C(=O)N[C@H](C(C)C)C(=O)N5CCC[C@H]5C(=O)N(C)CC(=O)N(C)[C@@H](C(C)C)C(=O)O[C@@H]4C)c3nc-2c(C(=O)N[C@@H]2C(=O)N[C@H](C(C)C)C(=O)N3CCC[C@H]3C(=O)N(C)CC(=O)N(C)[C@@H](C(C)C)C(=O)O[C@@H]2C)c(N)c1=O [dactinomycin] (I: T[dV]P[Sar][NMeV] / II: T[dV]P[Sar][NMeV]; ester I:1-I:C, II:1-II:C; linker I:N-II:N via Actinocin(9to1))	strong priming effect	about 4 ng/ml and ~3.18 nM	potently primed latent HIV-1 infection for reactivation	did not exhibit HIV-1 reactivating capacity by itself	2 to 8 ng/mL	up to 90%	Priming effects of dactinomycin were also observed	exerted its priming effect in each integration scenario	≥ 10 ng/mL	≥ 0.5 ng/mL							
B1											15%	weak GFP expression	Neither TNF-α nor HRF influenced GFP expression	lower levels of NF-κB activity and NF-κB driven gene expression than flagellin from Salmonella typhimurium	10%	same efficiency as Salmonella typhimurium flagellin	potency comparable to that of TNFα or PMA
